The source made the active and inactive calls. The rule behind the calls is not given here.
What was measured:
[1] = Inhibition of HIV1 REV protein binding to HIV1 [P33]RRE RNA by liquid scintillation assay; parameters: species or system Human immunodeficiency virus 1
[2] = Inhibition of R17 coat protein binding to [33P]labeled R17 operator RNA
[3] = Ratio of IC50 for R17 activity to IC50 for HIV1 Rev activity
[4] = tested on: Human immunodeficiency virus 1; test: Antiviral activity against HIV1 RF in CEM-SS cells assessed as cell protection against virus infection up to 260 uM by XTT assay; format: functional, organism-based

With CC(=O)OC[C@H]1O[C@H](O[C@]2(COC(C)=O)O[C@H](COC(=O)/C=C/c3ccccc3)[C@@H](O)[C@@H]2OC(=O)/C=C/c2ccccc2)[C@H](OC(C)=O)[C@@H](O)[C@@H]1OC(C)=O [NIRURIDE] the IC50 [1] was 3.3 µM, the IC50 [2] was greater than 130 µM and the Ratio IC50 [3] was greater than 40. The Activity [4] was “inactive”.
